From patent publication US20240398811A1, “PRC2 INHIBITORS FOR USE IN TREATING BLOOD DISORDERS” (ORIC Pharmaceuticals, Inc., priority 2021, published 2024)

Molecular target: purified human, His-tagged PRC2 complex (Homo sapiens (Human), UniProt O75530)
Assay: Hot Spot HMT assay, inhibition of PRC2 enzymatic activity
Format: biochemical
Details: 10 nM PRC2 complex, 1 μM 3H-SAM, core histone H3, 10-point dose-response
Procedure, shortened: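 Five-subunit PRC2 complex (EZH2, EED, SUZ12, AEBP2, RbAp48; 10 nM) preincubated 20 min at 30° C with compound (top 1.0 μM) and 0.05 mg/ml core histone H3 in Tris-HCl, 1% DMSO. Started with 1 μM [3H]SAM, 1 hr at 30° C; tritiated H3 measured by filter binding and scintillation.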

Chain of purified human, His-tagged PRC2 complex (O75530 whole entry): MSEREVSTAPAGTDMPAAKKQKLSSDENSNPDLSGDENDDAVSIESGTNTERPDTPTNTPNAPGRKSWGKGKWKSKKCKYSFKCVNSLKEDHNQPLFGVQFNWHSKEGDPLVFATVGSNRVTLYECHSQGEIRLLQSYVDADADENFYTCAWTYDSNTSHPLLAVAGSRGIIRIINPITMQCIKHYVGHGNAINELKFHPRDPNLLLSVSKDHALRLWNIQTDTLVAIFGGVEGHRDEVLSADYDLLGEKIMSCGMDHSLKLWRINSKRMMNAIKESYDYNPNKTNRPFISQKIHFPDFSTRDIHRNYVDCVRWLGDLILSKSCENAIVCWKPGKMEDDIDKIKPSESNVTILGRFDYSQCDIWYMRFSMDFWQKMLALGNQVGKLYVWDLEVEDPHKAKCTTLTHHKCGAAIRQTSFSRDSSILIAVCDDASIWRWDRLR
Chain of purified human, His-tagged PRC2 complex (Q15910 whole entry partner): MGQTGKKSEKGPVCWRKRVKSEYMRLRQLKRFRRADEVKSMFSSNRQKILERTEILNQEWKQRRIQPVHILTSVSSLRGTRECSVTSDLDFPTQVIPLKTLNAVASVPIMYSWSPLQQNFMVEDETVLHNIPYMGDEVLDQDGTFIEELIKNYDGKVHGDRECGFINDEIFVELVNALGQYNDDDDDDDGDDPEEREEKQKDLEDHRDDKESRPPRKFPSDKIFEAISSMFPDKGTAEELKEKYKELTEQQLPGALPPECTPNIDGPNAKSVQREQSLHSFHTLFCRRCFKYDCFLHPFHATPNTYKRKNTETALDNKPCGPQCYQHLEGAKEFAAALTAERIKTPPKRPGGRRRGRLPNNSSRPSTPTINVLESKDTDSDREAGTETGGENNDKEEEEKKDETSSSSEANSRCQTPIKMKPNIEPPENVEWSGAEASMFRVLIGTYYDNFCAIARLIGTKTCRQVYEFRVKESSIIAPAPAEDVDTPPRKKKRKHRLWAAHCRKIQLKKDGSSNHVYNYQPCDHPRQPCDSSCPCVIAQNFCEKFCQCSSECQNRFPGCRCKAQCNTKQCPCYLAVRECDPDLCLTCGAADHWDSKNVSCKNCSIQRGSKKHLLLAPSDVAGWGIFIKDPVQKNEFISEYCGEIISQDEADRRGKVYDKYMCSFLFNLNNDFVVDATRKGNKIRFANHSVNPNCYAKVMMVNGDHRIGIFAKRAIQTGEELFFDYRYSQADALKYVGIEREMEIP
Chain of purified human, His-tagged PRC2 complex (Q15022 whole entry partner): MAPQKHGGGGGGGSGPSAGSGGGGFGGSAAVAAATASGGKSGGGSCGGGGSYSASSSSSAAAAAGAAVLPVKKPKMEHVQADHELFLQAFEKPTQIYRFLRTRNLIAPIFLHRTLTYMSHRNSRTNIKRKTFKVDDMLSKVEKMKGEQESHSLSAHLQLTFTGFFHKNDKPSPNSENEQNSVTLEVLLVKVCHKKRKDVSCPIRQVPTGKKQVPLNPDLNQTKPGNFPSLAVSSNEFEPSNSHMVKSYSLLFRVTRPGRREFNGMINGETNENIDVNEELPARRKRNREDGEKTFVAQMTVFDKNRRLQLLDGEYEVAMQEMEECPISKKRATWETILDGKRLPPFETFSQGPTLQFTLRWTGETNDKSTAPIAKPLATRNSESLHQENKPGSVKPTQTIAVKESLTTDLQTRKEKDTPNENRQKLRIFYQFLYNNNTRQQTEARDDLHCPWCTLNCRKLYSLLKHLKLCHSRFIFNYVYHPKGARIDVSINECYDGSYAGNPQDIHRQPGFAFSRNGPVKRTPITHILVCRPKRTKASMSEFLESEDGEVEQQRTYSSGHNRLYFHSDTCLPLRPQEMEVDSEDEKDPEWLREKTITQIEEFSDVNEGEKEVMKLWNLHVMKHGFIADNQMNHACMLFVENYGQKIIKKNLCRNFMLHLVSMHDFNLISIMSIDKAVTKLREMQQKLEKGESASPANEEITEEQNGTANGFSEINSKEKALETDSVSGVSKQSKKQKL
Chain of purified human, His-tagged PRC2 complex (Q6ZN18 whole entry partner): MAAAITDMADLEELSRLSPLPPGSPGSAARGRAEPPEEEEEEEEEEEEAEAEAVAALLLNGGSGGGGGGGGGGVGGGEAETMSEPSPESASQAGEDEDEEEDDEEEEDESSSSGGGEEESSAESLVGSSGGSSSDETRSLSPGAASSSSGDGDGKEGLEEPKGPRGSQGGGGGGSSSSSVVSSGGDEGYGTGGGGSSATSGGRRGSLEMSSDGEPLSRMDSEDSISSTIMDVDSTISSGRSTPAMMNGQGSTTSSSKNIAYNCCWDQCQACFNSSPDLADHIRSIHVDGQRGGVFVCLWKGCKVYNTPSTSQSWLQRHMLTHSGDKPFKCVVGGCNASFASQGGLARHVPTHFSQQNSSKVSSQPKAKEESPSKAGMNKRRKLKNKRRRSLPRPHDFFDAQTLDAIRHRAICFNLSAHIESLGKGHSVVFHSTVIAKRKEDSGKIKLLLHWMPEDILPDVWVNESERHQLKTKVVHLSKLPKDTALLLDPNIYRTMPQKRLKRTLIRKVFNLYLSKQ
Chain of purified human, His-tagged PRC2 complex (Q09028 whole entry partner): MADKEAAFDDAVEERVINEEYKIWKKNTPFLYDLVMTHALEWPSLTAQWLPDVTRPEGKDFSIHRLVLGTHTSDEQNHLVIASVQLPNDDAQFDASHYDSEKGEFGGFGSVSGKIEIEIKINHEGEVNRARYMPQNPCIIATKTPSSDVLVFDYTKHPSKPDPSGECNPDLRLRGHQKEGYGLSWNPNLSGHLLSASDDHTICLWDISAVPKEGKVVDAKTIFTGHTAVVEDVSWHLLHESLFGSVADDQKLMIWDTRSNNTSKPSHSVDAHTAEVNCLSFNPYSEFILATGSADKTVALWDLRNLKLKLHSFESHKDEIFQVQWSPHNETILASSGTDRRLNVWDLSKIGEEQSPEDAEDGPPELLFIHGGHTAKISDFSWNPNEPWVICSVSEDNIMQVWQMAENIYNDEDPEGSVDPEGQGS

SMILES | IC50 [nM]
N#Cc1cn2c(NCc3c(F)ccc4c3CCO4)ncc(-c3cccnc3CO)c2n1 [Example 148, 5-(((5-fluoro-2,3-dihydrobenzofuran-4-yl)methyl)amino)-8-(2-(hydroxymethyl)pyridin-3-yl)imidazo[1,2-c]pyrimidine-2-carbonitrile] | < 100
CN(C)Cc1c(F)cc(-c2cnc(NCc3c(F)ccc4c3CCO4)n3cc(C#N)nc23)cc1F [Example 149, 8-(4-((dimethylamino)methyl)-3,5-difluorophenyl)-5-(((5-fluoro-2,3-dihydrobenzofuran-4-yl)methyl)amino)imidazo[1,2-c]pyrimidine-2-carbonitrile] | 100 to 500
N#Cc1cn2c(NCc3c(F)ccc4c3CCO4)ncc(-c3ccc(CN4CC(O)C4)cc3)c2n1 [Example 150, 5-(((5-fluoro-2,3-dihydrobenzofuran-4-yl)methyl)amino)-8-(4-((3-hydroxyazetidin-1-yl)methyl)phenyl)imidazo[1,2-c]pyrimidine-2-carbonitrile] | < 100
N#Cc1cn2c(NCc3c(F)ccc4c3CCO4)ncc(-c3ccc(CN4CCC(O)C4)cc3)c2n1 (stereo not drawn) [Example 151, 5-(((5-fluoro-2,3-dihydrobenzofuran-4-yl)methyl)amino)-8-(4-((3-hydroxypyrrolidin-1-yl)methyl)phenyl)imidazo[1,2-c]pyrimidine-2-carbonitrile] | < 100
Cc1nc(CN(C)C)ccc1-c1cnc(NCc2c(F)ccc3c2CCO3)n2cc(C#N)nc12 [Example 152, 8-(6-((dimethylamino)methyl)-2-methylpyridin-3-yl)-5-(((5-fluoro-2,3-dihydrobenzofuran-4-yl)methyl)amino)imidazo[1,2-c]pyrimidine-2-carbonitrile] | 100 to 500
N#Cc1cn2c(NCc3c(F)ccc4c3CCO4)ncc(-c3ccn(CC4CCCO4)n3)c2n1 (stereo not drawn) [Example 153, 5-(((5-fluoro-2,3-dihydrobenzofuran-4-yl)methyl)amino)-8-(1-((tetrahydrofuran-2-yl)methyl)-1H-pyrazol-3-yl)imidazo[1,2-c]pyrimidine-2-carbonitrile] | 100 to 500
N#Cc1cn2c(NCc3c(F)ccc4c3CCO4)ncc(-c3cnn(CC4CCOC4)c3)c2n1 (stereo not drawn) [Example 154, 5-(((5-fluoro-2,3-dihydrobenzofuran-4-yl)methyl)amino)-8-(1-((tetrahydrofuran-3-yl)methyl)-1H-pyrazol-4-yl)imidazo[1,2-c]pyrimidine-2-carbonitrile] | 100 to 500
Cc1cc(-c2cnc(NCc3c(F)ccc4c3C(O)CO4)n3cc(C#N)nc23)n(C)n1 (stereo not drawn) [Example 155, 8-(1,3-dimethyl-1H-pyrazol-5-yl)-5-(((5-fluoro-3-hydroxy-2,3-dihydrobenzofuran-4-yl)methyl)amino)imidazo[1,2-c]pyrimidine-2-carbonitrile] | < 100
Cn1cccc(-c2cnc(NCc3c(F)ccc4c3CCO4)n3cc(C#N)nc23)c1=O [Example 156, 5-(((5-fluoro-2,3-dihydrobenzofuran-4-yl)methyl)amino)-8-(1-methyl-2-oxo-1,2-dihydropyridin-3-yl)imidazo[1,2-c]pyrimidine-2-carbonitrile] | 100 to 500
Cn1nc(C(=O)O)cc1-c1cnc(NCc2c(F)ccc3c2CCO3)n2cc(C#N)nc12 [Example 157, 5-(2-cyano-5-(((5-fluoro-2,3-dihydrobenzofuran-4-yl)methyl)amino)imidazo[1,2-c]pyrimidin-8-yl)-1-methyl-1H-pyrazole-3-carboxylic acid] | < 100
COCCOc1ccc(-c2cnc(NCc3c(F)ccc4c3CCO4)n3cc(C#N)nc23)cn1 [Example 158, 5-(((5-fluoro-2,3-dihydrobenzofuran-4-yl)methyl)amino)-8-(6-(2-methoxyethoxy)pyridin-3-yl)imidazo[1,2-c]pyrimidine-2-carbonitrile] | 100 to 500
CN1CCc2cc(-c3cnc(NCc4c(F)ccc5c4CCO5)n4cc(C#N)nc34)ccc2C1 [Example 159, 5-(((5-fluoro-2,3-dihydrobenzofuran-4-yl)methyl)amino)-8-(2-methyl-1,2,3,4-tetrahydroisoquinolin-6-yl)imidazo[1,2-c]pyrimidine-2-carbonitrile] | 100 to 500
CN1CCCC1c1ccc(-c2cnc(NCc3c(F)ccc4c3CCO4)n3cc(C#N)nc23)cc1 (stereo not drawn) [Example 160, 5-(((5-fluoro-2,3-dihydrobenzofuran-4-yl)methyl)amino)-8-(4-(1-methylpyrrolidin-2-yl)phenyl)imidazo[1,2-c]pyrimidine-2-carbonitrile] | < 100
COCCOc1ccc(-c2cnc(NCc3c(F)ccc4c3CCO4)n3cc(C#N)nc23)cc1 [Example 161, 5-(((5-fluoro-2,3-dihydrobenzofuran-4-yl)methyl)amino)-8-(4-(2-methoxyethoxy)phenyl)imidazo[1,2-c]pyrimidine-2-carbonitrile] | < 100
N#Cc1cn2c(NCc3c(F)ccc4c3CCO4)ncc(-c3ccc(C4CCCO4)cc3)c2n1 (stereo not drawn) [Example 162, 5-(((5-fluoro-2,3-dihydrobenzofuran-4-yl)methyl)amino)-8-(4-(tetrahydrofuran-2-yl)phenyl)imidazo[1,2-c]pyrimidine-2-carbonitrile] | < 100
CN(C)CCc1ccc(-c2cnc(NCc3c(F)ccc4c3CCO4)n3cc(C#N)nc23)cc1 [Example 163, 8-(4-(2-(dimethylamino)ethyl)phenyl)-5-(((5-fluoro-2,3-dihydrobenzofuran-4-yl)methyl)amino)imidazo[1,2-c]pyrimidine-2-carbonitrile] | < 100
CCOP(=O)(OCC)c1ccc(-c2cnc(NCc3c(F)ccc4c3CCO4)n3cc(C#N)nc23)cc1 [Example 164, diethyl (4-(2-cyano-5-(((5-fluoro-2,3-dihydrobenzofuran-4-yl)methyl)amino)imidazo[1,2-c]pyrimidin-8-yl)phenyl)phosphonate] | < 100
[2H]C([2H])(Nc1ncc(-c2ccc(CN(C)C)cc2)c2nc(C#N)cn12)c1c(F)ccc2c1CCO2 [Example 165, 8-(4-((dimethylamino)methyl)phenyl)-5-(((5-fluoro-2,3-dihydrobenzofuran-4-yl)methyl-d2)amino)imidazo[1,2-c]pyrimidine-2-carbonitrile] | < 100
COC(=O)c1ccc(-c2cnc(NCc3c(F)ccc4c3CCO4)n3cc(C#N)nc23)cn1 [Example 166, methyl 5-(2-cyano-5-(((5-fluoro-2,3-dihydrobenzofuran-4-yl)methyl)amino)imidazo[1,2-c]pyrimidin-8-yl)picolinate] | < 100
COC(=O)c1ccc(-c2cnc(NCc3c(F)ccc4c3CCO4)n3cc(C#N)nc23)cc1 [Example 167, methyl 4-(2-cyano-5-(((5-fluoro-2,3-dihydrobenzofuran-4-yl)methyl)amino)imidazo[1,2-c]pyrimidin-8-yl)benzoate] | 100 to 500
CN1CCc2cc(-c3cnc(NCc4c(F)ccc5c4CCO5)n4cc(C#N)nc34)ccc2C1=O [Example 168, 5-(((5-fluoro-2,3-dihydrobenzofuran-4-yl)methyl)amino)-8-(2-methyl-1-oxo-1,2,3,4-tetrahydroisoquinolin-6-yl)imidazo[1,2-c]pyrimidine-2-carbonitrile] | < 100
COC(=O)c1cc(-c2cnc(NCc3c(F)ccc4c3CCO4)n3cc(C#N)nc23)n(C)n1 [Example 169, methyl 5-(2-cyano-5-(((5-fluoro-2,3-dihydrobenzofuran-4-yl)methyl)amino)imidazo[1,2-c]pyrimidin-8-yl)-1-methyl-1H-pyrazole-3-carboxylate] | < 100
CN(C)C(=O)c1cc(-c2cnc(NCc3c(F)ccc4c3CCO4)n3cc(C#N)nc23)n(C)n1 [Example 170, 5-(2-cyano-5-(((5-fluoro-2,3-dihydrobenzofuran-4-yl)methyl)amino)imidazo[1,2-c]pyrimidin-8-yl)-N,N,1-trimethyl-1H-pyrazole-3-carboxamide] | < 100
CN(C)C1(c2ccc(-c3cnc(NCc4c(F)ccc5c4CCO5)n4cc(C#N)nc34)cc2)CC1 [Example 171, 8-(4-(1-(dimethylamino)cyclopropyl)phenyl)-5-(((5-fluoro-2,3-dihydrobenzofuran-4-yl)methyl)amino)imidazo[1,2-c]pyrimidine-2-carbonitrile] | < 100
N#Cc1cn2c(NCc3c(F)ccc4c3CCO4)ncc(-c3ccc4c(c3)CCNC4=O)c2n1 [Example 172, 5-(((5-fluoro-2,3-dihydrobenzofuran-4-yl)methyl)amino)-8-(1-oxo-1,2,3,4-tetrahydroisoquinolin-6-yl)imidazo[1,2-c]pyrimidine-2-carbonitrile] | < 100
[2H]C([2H])(c1ccc(-c2cnc(NCc3c(F)ccc4c3CCO4)n3cc(C#N)nc23)c(C)c1)N(C)C [Example 173, 8-(4-((dimethylamino)methyl-d2)-2-methylphenyl)-5-(((5-fluoro-2,3-dihydrobenzofuran-4-yl)methyl)amino)imidazo[1,2-c]pyrimidine-2-carbonitrile] | < 100
N#Cc1cn2c(NCc3c(F)ccc4c3CCO4)ncc(-c3cccc(C(=O)O)c3)c2n1 [Example 174, 3-(2-cyano-5-(((5-fluoro-2,3-dihydrobenzofuran-4-yl)methyl)amino)imidazo[1,2-c]pyrimidin-8-yl)benzoic acid] | < 100
Cc1ccc(-c2cnc(NCc3c(F)ccc4c3CCO4)n3cc(C#N)nc23)cc1 [Example 175, 5-(((5-fluoro-2,3-dihydrobenzofuran-4-yl)methyl)amino)-8-(p-tolyl)imidazo[1,2-c]pyrimidine-2-carbonitrile] | 100 to 500
Cc1c(C#N)cccc1-c1cnc(NCc2c(F)ccc3c2CCO3)n2cc(C#N)nc12 [Example 176, 8-(3-cyano-2-methylphenyl)-5-(((5-fluoro-2,3-dihydrobenzofuran-4-yl)methyl)amino)imidazo[1,2-c]pyrimidine-2-carbonitrile] | < 100
Cc1ccc(C#N)cc1-c1cnc(NCc2c(F)ccc3c2CCO3)n2cc(C#N)nc12 [Example 177, 8-(5-cyano-2-methylphenyl)-5-(((5-fluoro-2,3-dihydrobenzofuran-4-yl)methyl)amino)imidazo[1,2-c]pyrimidine-2-carbonitrile] | 100 to 500
